{"source": "patent US20080299109A1", "about": "“MECHANISM OF ASTRICYTE-NEURON SIGNALING” (Korea Institute of Science and Technology, priority 2007, published 2008)", "key": {"[1]": {"test_system": "cultured wild-type mouse astrocytes", "test": "Fura-2 intracellular Ca2+ imaging in cultured wild-type astrocytes", "assay_type": "cell-based", "details": "30 nM thrombin", "description": "Cultured astrocytes were prepared from P0-P3 postnatal mice obtained from KIST SPF. The cerebral cortex was dissected free of adherent meninges, minced, and dissociated into single cell suspension by trituration through a Pasteur pipette. All procedures involving the use of animals were reviewed and approved by the Emory University IACUC. Dissociated cells were plated onto either 12 mm glass coverslips or 6 well plates coated with 0.1 mg/ml poly-D-lysine. Cells were grown in a DMEM media (Gibco, cat# 11960-044) supplemented with 25 mM glucose, 10% heat-inactivated horse serum, and 10% heat-inactivated fetal bovine serum, 2 mM glutamine, and 1000 units/ml penicillin-streptomycin. Cultures were maintained at 37° C. in a humidified 5% CO2-containing atmosphere. […] In some experiments, the culture media was replaced 24 hours after plating with DMEM with all added components except glutamine, and cultures were maintained for 4 days before experimentation in glutamine-free media.\nCultured astrocytes were incubated with 5 µM Fura2-AM in […] pluronic acid (Molecular Probes) for 30 min at room temperature, and subsequently transferred to a microscope stage for imaging. The external solution contained 150 mM NaCl, 10 mM HEPES, 3 mM KCl, 2 mM CaCl2, 2 mM MgCl2, and 5.5 mM glucose, and the pH was adjusted to pH 7.3 and osmolarity to 325 mOsm. Intensity images of a 510 nm wavelength were taken at 340 nm and 380 nm excitation wavelengths using either a Micromax Camera (Princeton) or an intensified video camera (PTI), and the two resulting images were used for ratio calculations using Axon Imaging Workbench version 2.2.1."}, "[2]": {"test_system": "PAR1−/− mouse astrocytes", "test": "Fura-2 intracellular Ca2+ imaging in cultured PAR1−/− astrocytes", "assay_type": "cell-based", "details": "30 μM TFLLR, 30 nM thrombin, 10 μM ATP positive control", "description": "Cultured astrocytes were prepared from P0-P3 postnatal mice obtained from KIST SPF. The cerebral cortex was dissected free of adherent meninges, minced, and dissociated into single cell suspension by trituration through a Pasteur pipette. All procedures involving the use of animals were reviewed and approved by the Emory University IACUC. Dissociated cells were plated onto either 12 mm glass coverslips or 6 well plates coated with 0.1 mg/ml poly-D-lysine. Cells were grown in a DMEM media (Gibco, cat# 11960-044) supplemented with 25 mM glucose, 10% heat-inactivated horse serum, and 10% heat-inactivated fetal bovine serum, 2 mM glutamine, and 1000 units/ml penicillin-streptomycin. Cultures were maintained at 37° C. in a humidified 5% CO2-containing atmosphere. Astrocyte cultures prepared in this way were previously determined by GFAP (glial fibrillary acidic protein) staining to be greater than 95% astrocytes (Nicole et al., 2005). In some experiments, the culture media was replaced 24 hours after plating with DMEM with all added components except glutamine, and cultures were maintained for 4 days before experimentation in glutamine-free media.\nCultured astrocytes were incubated with 5 µM Fura2-AM in […] pluronic acid (Molecular Probes) for 30 min at room temperature, and subsequently transferred to a microscope stage for imaging. […]"}, "[3]": {"test_system": "CA1 pyramidal cells", "test": "Current clamp membrane potential of CA1 pyramidal cells in hippocampal slices", "assay_type": "cell-based, rat", "details": "30 nM thrombin", "description": "(§1) Young rats (Sprague-Dawley, age P15-P20) or mice (C57/B16, age P14-19) were deeply anesthetized with isoflurane and decapitated. The brain was rapidly removed and submerged in an ice-cold oxygenated artificial cerebrospinal fluid (ACSF) comprised of 130 mM NaCl, 24 mM NaHCO3, 3.5 mM KCl, 1.25 mM NaH2PO4, 1 mM CaCl2,3 mM MgCl2, and 10 mM glucose saturated with 95% O2/5% CO2, at pH 7.4.\nThe hemisected brain was glued onto the stage of a vibrating microtome (Leica VT1000 S) and sections of 300 μm thickness were cut and stored in an incubation chamber at room temperature for about 1 h before use. For voltage clamp experiments, the solution used to fill the electrodes was comprised of 140 mM Cs-MeSO4, 10 mM HEPES, 7 mM NaCl, 4 mM Mg-ATP, and 0.3 mM Na3-GTP; the solution for current clamp recordings was comprised of 140 mM K-MeSO4, 10 mM HEPES, 7 mM NaCl, 4 mM Mg-ATP, and 0.3 mM Na3-GTP, and supplemented with 1 mM QX314; and 1 mM QX314 was omitted from some current clamp recordings (e.g., FIG. 9e).\n(§2) Slices were placed on the stage of an upright microscope underneath a platinum and nylon restraining grid, and superfused with oxygenated ACSF at room temperature (23° C.), some experiments are performed at 34° C. by a temperature controller (TC-344B, Warner, Hamden). The standard ACSF recording solution was comprised of 130 mM NaCl, 24 mM NaHCO3, 3.5 mM KCl, 1.25 mM NaH2PO4, 1.5 mM CaCl2, 1.5 mM MgCl2, and 10 mM glucose saturated with 95% O2/5% CO2, at pH 7.4. For some experiments 0.5-1 μM TTX, 10 μM NBQX, or 10-20 μM bicuculline were added to the extracellular solution, extracellular Mg^2+ was reduced to 5 μM, and/or extracellular Ca^2+ raised to 2 mM.\nVisually guided whole-cell patch recordings were obtained from CA1 pyramidal neurons in a voltage clamp or current clamp configuration using an Axopatch 200A (Axon Instruments) and a borosilicate patch pipette of 5-7 MΩ resistance. […] Records were filtered at 5 kHz and digitized at 20 kHz using a Digidata 1200 A/D board.\nSynaptic responses were evoked by applying 0.1 ms current injection (1-100 μA) to a bipolar stimulating electrode placed in the stratum radiatum. Thrombin (Calbiochem) concentration was determined as described by Gingrich et al. (2000) using conversion of 1 U/ml=10 nM. TFLLR and thrombin were applied by gravity perfusion at 1.0 ml/min, with extensive washing of perfusion lines, chamber, and objective between experiments to remove all residual thrombin, which has been reported to irreversibly cleave and PAR1 at a pM concentration. Removal of all thrombin ensured that PAR1 receptors were not pre-cleaved by residual thrombin prior to experimentation."}, "[4]": {"test_system": "synaptic NMDA receptors", "test": "Evoked NMDA EPSC current-voltage relationship in CA1 pyramidal cells", "assay_type": "cell-based, rat", "details": "30 nM thrombin, 0.2 mM Mg^2+", "description": "as §1\nas §2, with “For some experiments 0.5-1 μM TTX, 10 μM NBQX, or 10-20 μM bicuculline were added to the extracellular solution, extracellular Mg^2+ was reduced to 5 μM, and/or extracellular Ca^2+ raised to 2 mM.” left out\nSynaptic responses were evoked by applying 0.1 ms current injection (1-100 μA) to a bipolar stimulating electrode placed in the stratum radiatum. Thrombin (Calbiochem) concentration was determined as described by Gingrich et al. (2000) using conversion of 1 U/ml=10 nM. […]\nEPSCs were evoked by electrical stimulation of Schaffer collateral axons in the CA1 stratum radiatum, and recorded from CA1 pyramidal neurons under voltage clamp. […]"}}, "data": [{"substance": "thrombin", "values": [{"measurement": "change in Fura-2 ratio", "setting": "[1]; without or after pretreatment with 1 μM BMS200261", "result": "150.9±17.4", "unit": "%"}, {"measurement": "level of astrocytic intracellular Ca^2+ (Fura-2 fluorescence ratio)", "setting": "[1]; 30 μM TFLLR, 10 μM bradykinin, 50 μM 2-methyl-thio-ATP, 10 μM ATP", "result": "robust increase"}, {"measurement": "intracellular Ca^2+ concentration in PAR1−/− astrocytes", "setting": "[2]", "result": "did not cause an increase"}, {"measurement": "membrane depolarization", "setting": "[3]; 1.5 mM Mg^2+, n=22", "result": "5.7±0.9", "unit": "mV"}, {"measurement": "depolarization of the membrane potential at 23° C.", "setting": "[3]; with or without APV 100 μM", "result": "5.8±1.7", "unit": "mV"}, {"measurement": "depolarization of the membrane potential at 34° C.", "setting": "[3]; with or without APV 100 μM", "result": "4.3±1.0", "unit": "mV"}, {"measurement": "Mg^2+ block of NMDA EPSCs at −60 mV", "setting": "[4]", "result": "significantly less Mg^2+ block"}]}]}
